{"source": "patent US11236047B2", "about": "(ASTEX THERAPEUTICS LIMITED, priority 2017, dated 2022)"}
{"system": "SJSA-1 cells", "test": "Protocol B: SJSA-1 CellTiter-Glo luminescent cell viability assay", "details": "Homo sapiens, SJSA-1, read-out: SJSA1 IC50 (μM) (Protocol B), SJSA-1, Protocol B", "units": {"IC50": "µM"}, "method": "Protocol B: SJSA-1 and SN40R2 Assays\nThe CellTiter-Glo® Luminescent Cell Viability Assay is a homogeneous method to determine the number of viable cells in culture based on quantitation of the ATP present, which signals the presence of metabolically active cells. […] 100 μl of CTG reagent (Promega #G7573) was added to all wells and luminescence was measured on the topcount. The EC50 values were determined from a sigmoidal 4 parameter curve fit using XLfit in conjunction with Activity Base (IDBS; Guildford, Surrey, UK)."}
{"smiles": "CN(C)CC(C)(O)c1cc(F)c2c(c1)C(=O)N(Cc1ccc(Cl)cn1)[C@@]2(O[C@H]1CCOC1)c1ccc(Cl)cc1", "note": "(single isomer, unassigned) [Example 138]", "IC50": 0.56}
{"smiles": "Cn1cc(C(C)(O)c2cc(F)c3c(c2)C(=O)N(Cc2ccc(Cl)cn2)[C@@]3(OCC2(C(N)=O)CC2)c2ccc(Cl)cc2)cn1", "note": "(single isomer, unassigned) [Example 178]", "IC50": 0.1}
{"smiles": "CCn1cc(C(C)(O)c2cc(F)c3c(c2)C(=O)N(Cc2ccc(Cl)cn2)[C@@]3(OCC2(C(N)=O)CC2)c2ccc(Cl)cc2)cn1", "note": "(single isomer, unassigned) [Example 180]", "IC50": 0.16}
{"smiles": "CO[C@]1(c2ccc(Cl)cc2)c2c(F)cc(C(C)(O)c3cn(C)nn3)cc2C(=O)N1Cc1ccc(Cl)cn1", "note": "(single isomer, unassigned) [Example 187]", "IC50": 0.89}
{"smiles": "CC(O)(c1cc(F)c2c(c1)C(=O)N(Cc1ccc(Cl)cn1)[C@@]2(OCC1(C(N)=O)CC1)c1ccc(Cl)cc1)c1cscn1", "note": "(single isomer, unassigned) [Example 193]", "IC50": 0.14}
{"smiles": "Cc1nc(C(C)(O)c2cc(F)c3c(c2)C(=O)N(Cc2ccc(Cl)cn2)[C@@]3(OCC2(C(N)=O)CC2)c2ccc(Cl)cc2)cn1C", "note": "(single isomer, unassigned) [Example 197]", "IC50": 0.21}
{"smiles": "CO[C@]1(c2ccc(Cl)cc2)c2c(F)cc(C(C)(O)C3CCS(=O)(=O)CC3)cc2C(=O)N1Cc1ccc(Cl)cn1", "note": "(single isomer, unassigned) [Example 311]", "IC50": 0.25}
{"smiles": "CC(O)(c1cc(F)c2c(c1)C(=O)N(Cc1ccc(Cl)cn1)[C@@]2(OCCO)c1ccc(Cl)cc1)C1CCS(=O)(=O)CC1", "note": "(single isomer, unassigned) [Example 313]", "IC50": 0.95}
{"smiles": "CC(O)(c1cc(F)c2c(c1)C(=O)N(Cc1ccc(Cl)cn1)[C@@]2(OCC1(O)CC1)c1ccc(Cl)cc1)c1ncccn1", "note": "(single isomer, unassigned) [Example 396]", "IC50": 0.28}
{"system": "SJSA-1 cells", "test": "Protocol B: SJSA-1 CellTiter-Glo luminescent cell viability assay", "details": "SJSA-1, Protocol B, at 10 μM", "units": {"SJSA1 (Protocol B) % at stated concentration": "% at 10"}}
{"smiles": "CC(O)(c1cc(F)c2c(c1)C(=O)N(Cc1ccc(Cl)cn1)[C@@]2(OCCO)c1ccc(Cl)cc1)C1CCS(=O)(=O)CC1", "note": "(single isomer, unassigned) [Example 314]", "SJSA1 (Protocol B) % at stated concentration": 66}
{"system": "SJSA-1 cells", "test": "Protocol B: SJSA-1 CellTiter-Glo luminescent cell viability assay", "details": "read-out: SJSA1 IC50 (μM) (Protocol B); SJSA-1, Protocol B", "units": {"IC50": "µM"}}
{"smiles": "CCOCC(C)(O)c1cc(F)c2c(c1)C(=O)N(Cc1ccc(Cl)cn1)[C@@]2(O[C@H]1CCOC1)c1ccc(Cl)cc1", "note": "(single isomer, unassigned) [Example 140]", "IC50": 0.23}
{"smiles": "CCOCC(C)(O)c1cc(F)c2c(c1)C(=O)N(Cc1ccc(Cl)cn1)[C@@]2(O[C@H]1CCOC1)c1ccc(Cl)cc1", "note": "(single isomer, unassigned) [Example 141]", "IC50": 1.8}
{"smiles": "[2H]C([2H])([2H])OCC(C)(O)c1cc(F)c2c(c1)C(=O)N(C([2H])([2H])c1ccc(Cl)cn1)[C@@]2(O[C@H]1CCOC1)c1ccc(Cl)cc1", "note": "(single isomer, unassigned) [Example 142]", "IC50": 0.23}
{"smiles": "[2H]C([2H])([2H])OCC(C)(O)c1cc(F)c2c(c1)C(=O)N(C([2H])([2H])c1ccc(Cl)cn1)[C@@]2(O[C@H]1CCOC1)c1ccc(Cl)cc1", "note": "(single isomer, unassigned) [Example 143]", "IC50": 0.86}
{"smiles": "CO[C@]1(c2ccc(Cl)cc2)c2c(F)cc(C(C)(O)c3ncc[nH]3)cc2C(=O)N1Cc1ccc(Cl)cn1", "note": "(single isomer, unassigned) [Example 164]", "IC50": 2.2}
{"smiles": "CO[C@]1(c2ccc(Cl)cc2)c2c(F)cc(C(C)(O)c3nccs3)cc2C(=O)N1Cc1ccc(Cl)cn1", "note": "(single isomer, unassigned) [Example 166]", "IC50": 3.8}
{"smiles": "CCn1cc(C(C)(O)c2cc(F)c3c(c2)C(=O)N(Cc2ccc(Cl)cn2)[C@@]3(OCC2(O)CC2)c2ccc(Cl)cc2)cn1", "note": "(single isomer, unassigned) [Example 183]", "IC50": 0.43}
{"smiles": "CCn1cc(C(C)(O)c2cc(F)c3c(c2)C(=O)N(Cc2ccc(Cl)cn2)[C@@]3(OCC2(O)CC2)c2ccc(Cl)cc2)cn1", "note": "(single isomer, unassigned) [Example 184]", "IC50": 0.14}
{"smiles": "Cc1nnc(C(C)(O)c2cc(F)c3c(c2)C(=O)N(Cc2ccc(Cl)cn2)[C@@]3(OCC2(O)CC2)c2ccc(Cl)cc2)o1", "note": "(single isomer, unassigned) [Example 185]", "IC50": 2.2}
{"smiles": "Cc1nnc(C(C)(O)c2cc(F)c3c(c2)C(=O)N(Cc2ccc(Cl)cn2)[C@@]3(OCC2(O)CC2)c2ccc(Cl)cc2)o1", "note": "(single isomer, unassigned) [Example 186]", "IC50": 0.42}
{"smiles": "CO[C@]1(c2ccc(Cl)cc2)c2c(F)cc(C(C)(O)c3ccn(C)n3)cc2C(=O)N1Cc1ccc(Cl)cn1", "note": "(single isomer, unassigned) [Example 189]", "IC50": 1}
{"smiles": "CO[C@]1(c2ccc(Cl)cc2)c2c(F)cc(C(C)(O)c3ccn(C)n3)cc2C(=O)N1Cc1ccc(Cl)cn1", "note": "(single isomer, unassigned) [Example 190]", "IC50": 5}
{"smiles": "Cn1cnc(C(C)(O)c2cc(F)c3c(c2)C(=O)N(Cc2ccc(Cl)cn2)[C@@]3(OCC2(O)CC2)c2ccc(Cl)cc2)c1", "note": "(single isomer, unassigned) [Example 195]", "IC50": 0.61}
{"smiles": "Cn1cnc(C(C)(O)c2cc(F)c3c(c2)C(=O)N(Cc2ccc(Cl)cn2)[C@@]3(OCC2(O)CC2)c2ccc(Cl)cc2)c1", "note": "(single isomer, unassigned) [Example 196]", "IC50": 0.15}
{"smiles": "Cn1cc(C(C)(O)c2cc(F)c3c(c2)C(=O)N(Cc2ccc(Cl)cn2)[C@@]3(OCC2(O)CC2)c2ccc(Cl)cc2)cn1", "note": "(single isomer, unassigned) [Example 199]", "IC50": 0.83}
{"smiles": "Cn1cc(C(C)(O)c2cc(F)c3c(c2)C(=O)N(Cc2ccc(Cl)cn2)[C@@]3(OCC2(O)CC2)c2ccc(Cl)cc2)cn1", "note": "(single isomer, unassigned) [Example 200]", "IC50": 0.099}
{"smiles": "Cn1cc(C(C)(O)c2cc(F)c3c(c2)C(=O)N(Cc2ccc(Cl)cn2)[C@@]3(OCC2(C#N)CC2)c2ccc(Cl)cc2)cn1", "note": "(single isomer, unassigned) [Example 201]", "IC50": 0.76}
{"smiles": "Cn1cc(C(C)(O)c2cc(F)c3c(c2)C(=O)N(Cc2ccc(Cl)cn2)[C@@]3(OCC2(C#N)CC2)c2ccc(Cl)cc2)cn1", "note": "(single isomer, unassigned) [Example 202]", "IC50": 0.11}
{"smiles": "Cn1cc(C(C)(O)c2cc(F)c3c(c2)C(=O)N(Cc2ncc(Cl)cn2)[C@@]3(OCC2(O)CC2)c2ccc(Cl)cc2)cn1", "note": "(single isomer, unassigned) [Example 203]", "IC50": 0.08}
{"smiles": "Cn1cc(C(C)(O)c2cc(F)c3c(c2)C(=O)N(Cc2ncc(Cl)cn2)[C@@]3(OCC2(O)CC2)c2ccc(Cl)cc2)cn1", "note": "(single isomer, unassigned) [Example 204]", "IC50": 0.94}
{"smiles": "CC(O)(CN1CCCC1)c1cc(F)c2c(c1)C(=O)N(Cc1ccc(C#N)cn1)[C@@]2(OCC1(C#N)CC1)c1ccc(Cl)cc1", "note": "(single isomer, unassigned) [Example 276]", "IC50": 2.5}
{"smiles": "CC(O)(CN1CCCC1)c1cc(F)c2c(c1)C(=O)N(Cc1ccc(C#N)cn1)[C@@]2(OCC1(C#N)CC1)c1ccc(Cl)cc1", "note": "(single isomer, unassigned) [Example 277]", "IC50": 1.2}
{"smiles": "CN1CCN(CC(C)(O)c2cc(F)c3c(c2)C(=O)N(Cc2ccc(C#N)cn2)[C@@]3(OCC2(C#N)CC2)c2ccc(Cl)cc2)CC1", "note": "(single isomer, unassigned) [Example 278]", "IC50": 2.6}
{"smiles": "CN1CCN(CC(C)(O)c2cc(F)c3c(c2)C(=O)N(Cc2ccc(C#N)cn2)[C@@]3(OCC2(C#N)CC2)c2ccc(Cl)cc2)CC1", "note": "(single isomer, unassigned) [Example 279]", "IC50": 0.57}
{"smiles": "CO[C@]1(c2ccc(Cl)cc2)c2c(F)cc(C(C)(O)C3CCN(C(=O)CN(C)C)CC3)cc2C(=O)N1Cc1ccc(Cl)cn1", "note": "(single isomer, unassigned) [Example 298]", "IC50": 0.55}
{"smiles": "CO[C@]1(c2ccc(Cl)cc2)c2c(F)cc(C(C)(O)C3CCN(C(=O)CN(C)C)CC3)cc2C(=O)N1Cc1ccc(Cl)cn1", "note": "(single isomer, unassigned) [Example 299]", "IC50": 2}
{"smiles": "Cc1nc(C(C)(O)c2cc(F)c3c(c2)C(=O)N(Cc2ccc(Cl)cn2)[C@@]3(OCC2(O)CC2)c2ccc(Cl)cc2)cn1C", "note": "(single isomer, unassigned) [Example 324]", "IC50": 2.2}
{"smiles": "Cc1nc(C(C)(O)c2cc(F)c3c(c2)C(=O)N(Cc2ccc(Cl)cn2)[C@@]3(OCC2(O)CC2)c2ccc(Cl)cc2)cn1C", "note": "(single isomer, unassigned) [Example 325]", "IC50": 0.24}
{"smiles": "Cn1cc(C(C)(O)c2cc(F)c3c(c2)C(=O)N(Cc2ncc(Cl)cn2)[C@@]3(OCC2(CO)CC2)c2ccc(Cl)cc2)cn1", "note": "(single isomer, unassigned) [Example 348]", "IC50": 0.27}
{"smiles": "Cn1cc(C(C)(O)c2cc(F)c3c(c2)C(=O)N(Cc2ncc(Cl)cn2)[C@@]3(OCC2(CO)CC2)c2ccc(Cl)cc2)cn1", "note": "(single isomer, unassigned) [Example 349]", "IC50": 0.028}
{"smiles": "Cn1cc(C(C)(O)c2cc(F)c3c(c2)C(=O)N(Cc2ccc(C#N)cn2)[C@@]3(O[C@H]2C[C@@H](O)C2)c2ccc(Cl)cc2)cn1", "note": "(single isomer, unassigned) [Example 355, 6-{[1-(4-chlorophenyl)-7-fluoro-5-[1-hydroxy-1-(1-methyl-1H-pyrazol-4-yl)ethyl]-3-oxo-1-[cis-3-hydroxycyclobutoxy]-2,3-dihydro-1H-isoindol-2-yl]methyl}pyridine-3-carbonitrile]", "IC50": 4.7}
{"smiles": "Cn1cc(C(C)(O)c2cc(F)c3c(c2)C(=O)N(Cc2ccc(C#N)cn2)[C@@]3(O[C@H]2C[C@@H](O)C2)c2ccc(Cl)cc2)cn1", "note": "(single isomer, unassigned) [Example 356, 6-{[1-(4-chlorophenyl)-7-fluoro-5-[1-hydroxy-1-(1-methyl-1H-pyrazol-4-yl)ethyl]-3-oxo-1-[cis-3-hydroxycyclobutoxy]-2,3-dihydro-1H-isoindol-2-yl]methyl}pyridine-3-carbonitrile]", "IC50": 0.96}
{"system": "SJSA-1 cells", "test": "Protocol B: SJSA-1 CellTiter-Glo luminescent cell viability assay", "details": "read-out: SJSA1 IC50; Protocol B, SJSA-1", "units": {"IC50": "µM"}}
{"smiles": "CCC(O)(c1cc(F)c2c(c1)C(=O)N(Cc1ccc(C#N)cn1)[C@@]2(OCC1(CO)CC1)c1ccc(Cl)cc1)c1cn(C)cn1", "note": "(single isomer, unassigned) [Example 337]", "IC50": 0.058}
{"smiles": "CCC(O)(c1cc(F)c2c(c1)C(=O)N(Cc1ncc(C#N)cn1)[C@@]2(O[C@H]1CCOC1)c1ccc(Cl)cc1)c1cn(C)cn1", "note": "(single isomer, unassigned) [Example 369]", "IC50": 0.062}
